The record followed here is patent publication US20110281728A1, “METHOD FOR CONTROLLING COLORATION IN TABLE GRAPES BASED ON OLIGOGALACTURONIDES” (CENTRO DE INVESTIGACION EN ALIMENTACION Y DESARROLLO A.C., priority 2008, published 2011).

Marks after values point to notes of the source that are not given here.

This experiment relates to red table grapes. Description: Grape color in Color Index units for Red Grapes (CIRG) after application to grape plants. Format: in vivo, Vitis vinifera. As to conditions: 500 ppm. As to the method: Control of coloration by means of OGAs determines a new use of these polymers which ensure a controlled ripening and effective coloring, which provide a high quality in table grapes. OGAs were obtained by enzymatic hydrolysis of polygalacturonic acid (PGA), stopping the reaction by heating to 100° C. for 30 minutes. Partial purification was performed by using an ultra-filtration equipment to recover OGAs in the range of 5-10 KDa. For the comparison of the degree of polymerization of 7-20 GP, these were compared with external standards. OGAs were frozen using liquid nitrogen in order to obtain a powdered mixture, which was applied to grape plants in a particular proportion. Six treatments were used: three using different concentrations of OGAs, methyl jasmonate (MeJa), Ethrel and a control (water).
To determine the best way to control the red color in grapes, a series of experiments was performed, wherein doses of the mixture, application times, application conditions, and periods of application were tested, finding that the results are obtained: when the mixture was applied in an amount of 0.25 L per plant during the morning at a temperature of 18-20° C. for a period of two days during the veraison period.

Consider `O=P(O)(O)CCCl` [Ethrel, 2-chloroethyl phosphonic acid], for which the “grape color (CIRG)” value was 1.17^a CIRG (1 day post-application); 2.44^a CIRG (5 days post-application); 2.96^a CIRG (10 days post-application); 3.37^a CIRG (15 days post-application); 3.76^a CIRG (20 days post-application).
On the same counts, the results for `CC/C=C\CC1C(=O)CCC1CC(=O)OC` (stereo not shown) [MeJa, methyl jasmonate] are 1.13^a CIRG, 2.20^a CIRG, 3.41^a CIRG, 3.20^a CIRG and 3.31^b CIRG.
